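In this assay, cells in 96-well plates receive the compound at five concentrations for 48 hours. Endpoints are linearly interpolated between the surrounding concentrations. GI50: concentration for 50% inhibition of growth.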 Calls of active or inactive are those of the source. Cut-off read from the data, not from the text of the source: active = GI50 up to about 1.1 µM and inactive = higher.
Key:
Test in all cases: NCI tumour cell line growth inhibition, 48 h
OVCAR-5 = system: OVCAR-5
SF-295 = system: SF-295
NCI-H460 = system: NCI-H460
TK-10 = system: TK-10
MCF7 = system: MCF7
K562 = system: K562
KM12 = system: KM12
SNB-19 = system: SNB-19
CAKI-1 = system: CAKI-1
UO-31 = system: UO-31
ACHN = system: ACHN
786-0 = system: 786-0
CCRF-CEM = system: CCRF-CEM
COLO 205 = system: COLO 205
SN12C = system: SN12C
BT-549 = system: BT-549
LOX IMVI = system: LOX IMVI
MOLT-4 = system: MOLT-4
SNB-75 = system: SNB-75
SK-OV-3 = system: SK-OV-3

Structure (SMILES)	GI50 (OVCAR-5)	GI50 (SF-295)	GI50 (NCI-H460)	GI50 (TK-10)	GI50 (MCF7)	GI50 (K562)	GI50 (KM12)	GI50 (SNB-19)	GI50 (CAKI-1)	GI50 (UO-31)	GI50 (ACHN)	GI50 (786-0)	GI50 (CCRF-CEM)	GI50 (COLO 205)	GI50 (SN12C)	GI50 (BT-549)	GI50 (LOX IMVI)	GI50 (MOLT-4)	GI50 (SNB-75)	GI50 (SK-OV-3)
CC(O)CCNC(=O)Nc1c(C(F)(F)F)cc(-c2ccccc2)[nH]c1=O (stereo not given)	> 100 µM (inactive)	> 100 µM (inactive)	> 100 µM (inactive)	> 100 µM (inactive)	> 100 µM (inactive)	> 100 µM (inactive)	> 100 µM (inactive)	> 100 µM (inactive)	> 100 µM (inactive)	> 100 µM (inactive)	> 100 µM (inactive)	> 100 µM (inactive)	> 100 µM (inactive)	> 100 µM (inactive)	> 100 µM (inactive)	> 100 µM (inactive)	> 100 µM (inactive)	> 100 µM (inactive)	> 100 µM (inactive)	> 100 µM (inactive)
Brc1ccc(CCNCCN2CCCCC2)cc1	17 µM (inactive)	18.3 µM (inactive)	14.7 µM (inactive)	15.5 µM (inactive)	15.7 µM (inactive)	4.1 µM (inactive)	16.6 µM (inactive)	17.3 µM (inactive)	14.1 µM (inactive)	12.2 µM (inactive)	20.6 µM (inactive)	14.1 µM (inactive)	14.2 µM (inactive)	12.9 µM (inactive)	25.9 µM (inactive)	15.7 µM (inactive)	14.1 µM (inactive)	62.1 µM (inactive)	12.8 µM (inactive)	21.2 µM (inactive)
COc1cc(/C=C2\CC/C(=C\c3cc(OC)c(O)c(OC)c3)C2=O)cc(OC)c1O	6.18 µM (inactive)	3.98 µM (inactive)	1.89 µM (inactive)	5.32 µM (inactive)	1.91 µM (inactive)	2.76 µM (inactive)	1.48 µM (inactive)	3.69 µM (inactive)	2.72 µM (inactive)	3.43 µM (inactive)	2.05 µM (inactive)	4.9 µM (inactive)	1.85 µM (inactive)	17.1 µM (inactive)	8.32 µM (inactive)	2.69 µM (inactive)	2.29 µM (inactive)	1.02 µM (active)	1.19 µM (inactive)	3.81 µM (inactive)
COc1c(C)c(C/C=C(\C)CC/C=C(\C)CCC=C(C)C)c(OC)c(OC)c1OC	> 100 µM (inactive)	75 µM (inactive)	> 100 µM (inactive)	> 100 µM (inactive)	44.2 µM (inactive)	> 100 µM (inactive)	> 100 µM (inactive)	> 100 µM (inactive)	> 100 µM (inactive)	> 100 µM (inactive)	> 100 µM (inactive)	> 100 µM (inactive)	56.5 µM (inactive)	> 100 µM (inactive)	> 100 µM (inactive)	> 100 µM (inactive)	76.6 µM (inactive)	91.4 µM (inactive)	> 100 µM (inactive)	> 100 µM (inactive)
COc1ccc2nc3cc([N+](=O)[O-])ccc3c(NNc3ccc(Cl)cc3)c2c1	2.31 µM (inactive)	56.8 µM (inactive)	2.88 µM (inactive)	1.9 µM (inactive)	11.6 µM (inactive)	14.8 µM (inactive)	26.1 µM (inactive)	75.7 µM (inactive)	0.16 µM (active)	34.3 µM (inactive)	32.9 µM (inactive)	17.9 µM (inactive)	22 µM (inactive)	12.6 µM (inactive)	33.1 µM (inactive)	29.9 µM (inactive)	26.9 µM (inactive)	26.1 µM (inactive)	40.1 µM (inactive)	80 µM (inactive)
COc1ccc(C2C3=C(COC3=O)OC(C)(C)Oc3cc4c(cc32)OCO4)cc1 (stereo not given)	56.8 µM (inactive)	35.2 µM (inactive)	26.7 µM (inactive)	43.5 µM (inactive)	> 64.4 µM (inactive)	5.13 µM (inactive)	8.81 µM (inactive)	45.3 µM (inactive)	24.1 µM (inactive)	28.8 µM (inactive)	40 µM (inactive)	39.4 µM (inactive)	22.4 µM (inactive)	16.1 µM (inactive)	37 µM (inactive)	16.9 µM (inactive)	26.2 µM (inactive)	23.3 µM (inactive)	9.46 µM (inactive)	50.1 µM (inactive)
COc1ccc2oc3c(C)cc4c(OC)nnc(OC)c4c3c2c1	> 100 µM (inactive)	8.51 µM (inactive)	3.79 µM (inactive)	16.9 µM (inactive)	16.3 µM (inactive)	6.87 µM (inactive)	27.4 µM (inactive)	13.6 µM (inactive)	34 µM (inactive)	6.93 µM (inactive)	5.05 µM (inactive)	7.52 µM (inactive)	5.21 µM (inactive)	10.8 µM (inactive)	7.76 µM (inactive)	> 100 µM (inactive)	5.55 µM (inactive)	2.81 µM (inactive)	4.88 µM (inactive)	> 100 µM (inactive)
O=C(N/N=C\c1ccc(Cl)cc1)Nc1cccc2ccccc12	25.8 µM (inactive)	2.52 µM (inactive)	3.24 µM (inactive)	3.32 µM (inactive)	3.4 µM (inactive)	3.23 µM (inactive)	2.61 µM (inactive)	2.66 µM (inactive)	2.42 µM (inactive)	2.1 µM (inactive)	2.37 µM (inactive)	1.98 µM (inactive)	7.96 µM (inactive)	4.75 µM (inactive)	9.51 µM (inactive)	21.7 µM (inactive)	4.49 µM (inactive)	5.61 µM (inactive)	2.4 µM (inactive)	2.71 µM (inactive)
COc1ccc(/C=C/C(=O)NCC(NC(=O)/C=C/c2ccc(OC)c(OC)c2)C(=O)O)cc1OC (stereo not given)	> 100 µM (inactive)	> 100 µM (inactive)	> 100 µM (inactive)	> 100 µM (inactive)	> 100 µM (inactive)	> 100 µM (inactive)	> 100 µM (inactive)	> 100 µM (inactive)	> 100 µM (inactive)	> 100 µM (inactive)	> 100 µM (inactive)	> 100 µM (inactive)	> 100 µM (inactive)	> 100 µM (inactive)	> 100 µM (inactive)	> 100 µM (inactive)	> 100 µM (inactive)	> 100 µM (inactive)	> 100 µM (inactive)	> 100 µM (inactive)
C/C(=N/NC(=S)N1CCCCC1)c1ccccc1O	> 31.6 µM (inactive)	> 31.6 µM (inactive)	22.6 µM (inactive)	> 31.6 µM (inactive)	14.3 µM (inactive)	22.8 µM (inactive)	26.1 µM (inactive)	> 31.6 µM (inactive)	> 31.6 µM (inactive)	> 31.6 µM (inactive)	> 31.6 µM (inactive)	> 31.6 µM (inactive)	21.7 µM (inactive)	23.4 µM (inactive)	> 31.6 µM (inactive)	> 100 µM (inactive)	> 31.6 µM (inactive)	> 31.6 µM (inactive)	> 10 µM (inactive)	> 31.6 µM (inactive)

From ChEMBL document CHEMBL1201862, “PubChem BioAssay data set” (2004)
